According to US8987249B2, “Substituted 2-Aza-bicyclo[2.2.1]heptane-3-carboxylic acid (benzyl-cyano-methyl)-amides inhibitors of Cathepsin C” (Boehringer Ingelheim International GmbH, priority 2013, dated 2015):

target: recombinant human DPPI (Cathepsin C) (Homo sapiens (Human), UniProt P53634); experiment: Inhibition of human DPPI (Cathepsin C); type: biochemical; settings: substrate Gly-Arg-AMC
Method: Inhibition of Human DPPI (Cathepsin C)
Bovine serum albumin (BSA; Prod. No. A3059) and Dithiothreitol (DTT; Prod. No D0632) were from Sigma. […] The DPP1 inhibitor Gly-Phe-DMK was purchased from MP Biomedicals (Prod.-No. 03DK00625). The recombinant human DPPI was purchased from Prozymex. All other materials were of highest grade commercially available.
The following buffers were used: MES buffer: 25 mM MES, 50 mM NaCl, 5 mM DTT, adjusted to pH 6.0, containing 0.1% BSA; TAGZyme Buffer: 20 mM NaH2PO4, 150 mM NaCl adjusted to pH 6.0 with HCl
Then, 5 μL of substrate in MES buffer (final concentration 50 μM) were added. The microtiter plates were then incubated at room temperature for 30 min. Then, the reaction was stopped by adding 10 μL of Gly-Phe-DMK in MES-buffer (final concentration 1 μM).
The analysis of the data was performed by calculating the percentage of fluorescence in the presence of test compound in comparison to the fluorescence of the vehicle control after subtracting the background fluorescence using the following formula: (RFU(sample)−RFU(background))*100/(RFU(control)−RFU(background))
Data from these calculations were used to generate IC50 values for inhibition of DPPI, respectively.

Chain of recombinant human DPPI (Cathepsin C) (P53634 231-394): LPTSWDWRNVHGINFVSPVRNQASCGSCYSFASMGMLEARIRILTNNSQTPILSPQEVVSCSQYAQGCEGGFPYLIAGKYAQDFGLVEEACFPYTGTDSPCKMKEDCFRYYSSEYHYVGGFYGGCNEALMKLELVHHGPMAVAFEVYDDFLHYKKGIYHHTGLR
Chain of recombinant human DPPI (Cathepsin C) (P53634 395-463): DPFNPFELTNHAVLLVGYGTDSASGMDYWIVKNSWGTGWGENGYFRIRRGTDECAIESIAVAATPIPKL
Chain of recombinant human DPPI (Cathepsin C) (P53634 25-134): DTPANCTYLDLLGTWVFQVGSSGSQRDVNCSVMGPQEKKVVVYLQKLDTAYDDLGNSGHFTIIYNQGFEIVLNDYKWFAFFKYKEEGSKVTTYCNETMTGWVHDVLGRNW

Row | SMILES | IC50 [nM]
1 | CN1CCN(S(=O)(=O)c2cc(-c3ccc(C[C@@H](C#N)NC(=O)[C@H]4N[C@@H]5CC[C@H]4C5)c(F)c3)ccc2F)CC1 [Example 339] | 1.3
2 | CC(C)N1CCN(C(=O)c2cc(-c3ccc(C[C@@H](C#N)NC(=O)[C@H]4N[C@@H]5CC[C@H]4C5)c(F)c3)cs2)CC1 [Example 227] | 1
3 | N#C[C@H](Cc1ccc(-n2cc(C(=O)N3CCOCC3)cn2)cc1F)NC(=O)[C@H]1N[C@@H]2CC[C@H]1C2 [Example 287] | 39.7
4 | N#C[C@H](Cc1ccc(N2C3CCC2CN(C2CCOC2)C3)cc1F)NC(=O)[C@H]1N[C@@H]2CC[C@H]1C2 (stereo partly shown) [Example 329] | 7
5 | COC(=O)c1ccc2[nH]c(=O)c3cc(CC(C#N)NC(=O)[C@H]4N[C@@H]5CC[C@H]4C5)ccc3c2c1 (stereo partly shown) [Example 299] | 3.2
6 | CCCNC(=O)c1cc(-c2ccc(C[C@@H](C#N)NC(=O)[C@H]3N[C@@H]4CC[C@H]3C4)c(F)c2)cs1 [Example 164] | 2.3
7 | CN1C(=O)Cc2ccc(-c3ccc(CC(C#N)NC(=O)[C@H]4N[C@@H]5CC[C@H]4C5)c(O)c3)cc21 (stereo partly shown) [Example 120] | 55.6
8 | N#C[C@H](Cc1ccc(-c2ccc3c(c2)CC(=O)N3C2CCNCC2)cc1F)NC(=O)[C@H]1N[C@@H]2CC[C@H]1C2 [Example 334] | 22
9 | N#C[C@H](Cc1ccc(-c2csc(C(=O)N3CCN(CC(F)(F)F)CC3)c2)cc1F)NC(=O)[C@H]1N[C@@H]2CC[C@H]1C2 [Example 232] | 2.2
10 | N#C[C@H](Cc1ccc(-c2csc(C(=O)N3CCn4nccc4C3)c2)cc1F)NC(=O)[C@H]1N[C@@H]2CC[C@H]1C2 [Example 226] | 0.9
11 | N#CC(Cc1ccc2c(c1)[nH]c(=O)c1cc(F)ccc12)NC(=O)[C@H]1N[C@@H]2CC[C@H]1C2 (stereo partly shown) [Example 207] | 29.1
12 | N#C[C@H](Cc1ccc(-c2ccc(C(=O)N3CCOCC3)cc2)cc1F)NC(=O)[C@H]1N[C@@H]2CC[C@H]1C2 [Example 202] | 22.9
13 | CC(=O)Nc1ccc(-c2ccc(C[C@@H](C#N)NC(=O)[C@H]3N[C@H]4C[C@@H]3[C@@H]3C[C@@H]34)c(F)c2)cc1 [Example 131] | 139
14 | N#Cc1ccc(-c2ccc(C[C@@H](C#N)NC(=O)[C@H]3N[C@H]4C[C@@H]3[C@@H]3C[C@@H]34)c(F)c2)cn1 [Example 142] | 63.1
15 | N#C[C@H](Cc1ccc(-c2cc[nH]c(=O)c2)cc1F)NC(=O)[C@H]1N[C@@H]2CC[C@H]1C2 [Example 257] | 39.9
16 | CN1CCO[C@@H]2CCN(c3ccc(C[C@@H](C#N)NC(=O)[C@H]4N[C@@H]5CC[C@H]4C5)c(F)c3)C[C@@H]21 [Example 356] | 20
17 | CN(C)CCn1ccc(-c2ccc(C[C@@H](C#N)NC(=O)[C@H]3N[C@@H]4CC[C@H]3C4)c(F)c2)cc1=O [Example 256] | 26.3
18 | N#C[C@H](Cc1ccc(C2CCCN(C3CCOC3)C2)cc1F)NC(=O)[C@H]1N[C@@H]2CC[C@H]1C2 (stereo partly shown) [Example 338] | 44.3
19 | N#C[C@H](Cc1ccc(-c2ccc(S(=O)(=O)N3CCOCC3)cc2)cc1F)NC(=O)[C@H]1N[C@@H]2CC[C@H]1C2 [Example 217] | 3.7
20 | CN1CCO[C@H]2CN(c3ccc(C[C@@H](C#N)NC(=O)[C@H]4N[C@@H]5CC[C@H]4C5)c(F)c3)CC[C@@H]21 [Example 357] | 33.8
21 | COC(=O)c1cccc2c1[nH]c(=O)c1cc(CC(C#N)NC(=O)[C@H]3N[C@@H]4CC[C@H]3C4)ccc12 (stereo partly shown) [Example 311] | 9.9
22 | CN(C)CCN1C(=O)Cc2cc(-c3ccc(C[C@@H](C#N)NC(=O)[C@H]4N[C@@H]5CC[C@H]4C5)c(F)c3)ccc21 [Example 279] | 5.5
23 | CS(=O)(=Nc1cccc(-c2ccc(C[C@@H](C#N)NC(=O)[C@H]3N[C@@H]4CC[C@H]3C4)c(F)c2)c1)C1CCOCC1 (stereo partly shown) [Example 264] | 17
24 | N#CC(Cc1ccc2[nH]c3ccccc3c2c1)NC(=O)[C@H]1N[C@@H]2CC[C@H]1C2 (stereo partly shown) [Example 213] | 619
25 | N#C[C@H](Cc1ccc(N2CCCCC2)cc1F)NC(=O)[C@H]1N[C@@H]2CC[C@H]1C2 [Example 197] | 15.6
